From ChEMBL document CHEMBL1143274, “Potent and selective inhibitors of Helicobacter pylori glutamate racemase (MurI): pyridodiazepine amines” (Bioorg Med Chem Lett, 2009) come the findings set out here.

In series [1] the target is T1, Glutamate racemase (Helicobacter pylori J99, UniProt Q9ZLT0).
T1 sequence (Q9ZLT0 whole entry): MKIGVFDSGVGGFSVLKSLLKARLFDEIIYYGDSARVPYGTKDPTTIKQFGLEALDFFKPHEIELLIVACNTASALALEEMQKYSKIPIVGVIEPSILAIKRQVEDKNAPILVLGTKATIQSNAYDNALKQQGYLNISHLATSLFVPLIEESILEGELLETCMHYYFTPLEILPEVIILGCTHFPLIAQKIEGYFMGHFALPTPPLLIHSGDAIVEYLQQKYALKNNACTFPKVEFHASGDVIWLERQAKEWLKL
Put plainly: Inhibition of MurI in wild type Helicobacter pylori J99.

The next series relates to Helicobacter pylori. Put plainly: Antimicrobial activity against Helicobacter pylori SS1 by NCCLS method. Format: functional.
Series [2] can be described thus: Protein binding in mouse plasma. The class given is ADME, cell-free. Conditions: read-out: PPB (converted).
The subject of another series is Liver microsomes. Put plainly: Metabolic stability in human liver microsomes assessed as intrinsic clearance. Format: ADME, Microsome. On the set-up: unit not given here. Background: Liver microsomes are a subcellular fraction often used to study metabolism.
A short description of series [3]: Metabolic stability in mouse liver microsomes assessed as intrinsic clearance. Format: ADME, Microsome. Also noted: unit not given here.
Series [4] concerns the target T2, Glutamate racemase (Enterococcus faecalis (strain ATCC 700802 / V583), UniProt Q836J0).
T2 sequence (Q836J0 whole entry): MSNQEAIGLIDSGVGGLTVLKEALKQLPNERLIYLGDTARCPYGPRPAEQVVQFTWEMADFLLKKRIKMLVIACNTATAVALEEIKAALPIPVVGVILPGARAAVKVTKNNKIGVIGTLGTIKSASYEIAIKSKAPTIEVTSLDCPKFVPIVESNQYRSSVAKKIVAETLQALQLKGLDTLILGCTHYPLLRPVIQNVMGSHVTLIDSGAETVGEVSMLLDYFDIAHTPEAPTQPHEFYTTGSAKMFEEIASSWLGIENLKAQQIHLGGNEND
The experiment in a line: Inhibition of Enterococcus faecalis MurI.

Series [5] in a line: Inhibition of Escherichia coli MurI.
The nature of series [6]: Inhibition of Staphylococcus aureus MurI.
The test system of another series is Enterococcus faecalis. Put plainly: Antimicrobial activity against Enterococcus faecalis. The class given is functional.
Another series deals with Escherichia coli. The experiment in a line: Antimicrobial activity against Escherichia coli. The class given is functional.
Another series concerns Staphylococcus aureus. The experiment in a line: Antimicrobial activity against Staphylococcus aureus. Format: functional.
The nature of series [7]: Distribution coefficient, log D of the compound. Conditions: octanol/water. The class given is physicochemical.

SMILES strings stand for the structures. pIC50: −log10 of the molar value. In brackets after ≈: the same amount, converted by molar mass.

The term pIC50 denotes −log10 of the IC50, conventionally taken in molar units. Broadly, the MIC is the lowest concentration found to suppress growth. As usually defined, the logD is lipophilicity at a set pH, counting ionised and neutral species.

In turn, `CNC1=Nc2ncccc2C(c2ncco2)=NC1c1cccs1` (stereo not given) had a pIC50 at Glutamate racemase [1] of 5.11. Further, the lowest concentration to inhibit growth with Helicobacter pylori (MIC) was 1 mg/L (≈ 3.09 µM). In addition, the fraction unbound in series [2] was 0.257. Also, the CL with Liver microsomes is reported as less than 5; in [3], 19.

Compound `OC1CN(C2=Nc3ccccc3C(c3ccccc3)=NC2c2cccs2)C1` (stereo not given) returned a minimal inhibitory concentration (MIC) with Helicobacter pylori of 0.25 mg/L (≈ 0.669 µM). Moreover, the fraction unbound in [2] is 0.01.

`CNC1=Nc2ccccc2C(c2ccccc2)=NC1c1cccs1` (stereo not given): the pIC50 on Glutamate racemase [1] is 5.77; against Glutamate racemase [4] it was less than 3.40; in series [5], less than 3.40; in series [6], less than 3.40. Besides, the MIC with Helicobacter pylori is 0.5 mg/L (≈ 1.51 µM); in the series on Enterococcus faecalis it was more than 64 mg/L; against Escherichia coli it was more than 64 mg/L; against Staphylococcus aureus, more than 64 mg/L. In series [2], the fraction unbound is 0.003. Besides, the values for the CL (in the series on Liver microsomes; in series [3]) were 43 and 97, respectively. The compound further had a logD in series [7] of 4.1.

`CNC1=Nc2ncccc2C(c2ccco2)=NC1c1ccns1` (stereo not given) showed a negative logarithm of the IC50 (pIC50) against Glutamate racemase [1] of 5.06. Further, the minimal inhibitory concentration (MIC) against Helicobacter pylori came to 2 mg/L (≈ 6.18 µM). The fraction unbound in [2] is 0.264. The CL was found to be 26 with Liver microsomes and 27 in [3].

With `CNC1=Nc2ncccc2C(c2cc[nH]c2)=NC1c1cccs1` (stereo not given), the negative-log IC50 (pIC50) against Glutamate racemase [1] was 6.22. The compound also displayed an MIC against Helicobacter pylori of 0.4 mg/L (≈ 1.24 µM). Besides, the fraction unbound in [2] was 0.246. The CL is given as 19 in the series on Liver microsomes and 36 in series [3].

Compound `CNC1=Nc2nc(C)ccc2C(c2ccccc2)=NC1c1cccs1` (stereo not given) had a pIC50 at Glutamate racemase [1] of 5.77. The compound also had an MIC against Helicobacter pylori of 0.25 mg/L (≈ 0.722 µM). Moreover, the fraction unbound in series [2] is 0.039. Besides, the results for the CL (in the series on Liver microsomes; in series [3]) were 73 and more than 100, respectively.

At Glutamate racemase [1], `CNC1=Nc2ncccc2C(c2ccco2)=NC1c1cc(C#CC(C)O)cs1` (stereo not given) showed a pIC50 of 5.31. In the series with Helicobacter pylori, inhibition of growth (MIC) required 4 mg/L (≈ 10.2 µM). Further, in series [2], the fraction unbound was 0.091. Besides, the CL in the series on Liver microsomes was 7; in series [3] it was 17.

Regarding `CNC1=Nc2ccc(Cl)cc2C(c2ccccc2)=NC1c1cccs1` (stereo not given), the pIC50 against Glutamate racemase [1] was 4.89. The compound also gave an MIC against Helicobacter pylori of 8 mg/L (≈ 21.9 µM). The CL is 52 with Liver microsomes and more than 100 in series [3].

In turn, `CNC1=Nc2ncccc2C(c2cccs2)=NC1c1cccs1` (stereo not given) had a pIC50 at Glutamate racemase [1] of 6.15. The compound also gave a minimal inhibitory concentration (MIC) in the series with Helicobacter pylori of 0.25 mg/L (≈ 0.739 µM). Moreover, the fraction unbound in series [2] was 0.03. For the same compound, the CL in the series with Liver microsomes is 30; in series [3], more than 100.

Compound `CNC1=Nc2ncccc2C(c2ccco2)=NC1c1ccco1` (stereo not given) showed a pIC50 against Glutamate racemase [1] of 4.73. Further, 8 mg/L (≈ 26.1 µM) was the least that counted as inhibitory in the series on Helicobacter pylori (MIC). Further, in series [2], the fraction unbound was 0.193. Also, the CL came to 9 with Liver microsomes and 19 in series [3].

Turning to `CCCNC1=Nc2ccccc2C(c2ccccc2)=NC1c1cccs1` (stereo not given), the pIC50 on Glutamate racemase [1] was 5.40. For the same compound, the MIC against Helicobacter pylori stood at 16 mg/L (≈ 44.5 µM). Moreover, the CL is recorded as 30 in the series with Liver microsomes and more than 100 in series [3].

In the case of `CNC1=Nc2ncccc2C(C2CCCC2)=NC1c1cccs1` (stereo not given), at Glutamate racemase [1], the negative logarithm of the IC50 (pIC50) was 5.39. The same compound showed an MIC with Helicobacter pylori of 8 mg/L (≈ 24.7 µM). In addition, in series [2], the fraction unbound was 0.048. Besides, the CL is 59 in the series with Liver microsomes and more than 100 in series [3].

Compound `CNC1=Nc2ncccc2C(c2ccns2)=NC1c1cccs1` (stereo not given) had a pIC50 against Glutamate racemase [1] of 5.96. Further, the MIC in the series with Helicobacter pylori came to 0.32 mg/L (≈ 0.943 µM). For the same compound, in series [2], the fraction unbound was 0.241. In addition, the CL with Liver microsomes worked out at 18; in series [3], 37.

As for `CNC1=Nc2ncccc2C(c2ccco2)=NC1c1sccc1Cl` (stereo not given), on Glutamate racemase [1], the pIC50 was 5.55. Also, the lowest concentration to inhibit growth in the series with Helicobacter pylori (MIC) was 0.5 mg/L (≈ 1.4 µM). Moreover, the fraction unbound in series [2] is 0.013. Besides, the CL is reported as 74 in the series on Liver microsomes and more than 150 in series [3].

Take `CNC1=Nc2ncccc2C(c2ccco2)=NC1c1cccs1` (stereo not given): the negative logarithm of the IC50 (pIC50) against Glutamate racemase [1] was 5.70. In addition, the MIC against Helicobacter pylori is 0.19 mg/L (≈ 0.589 µM). In addition, the fraction unbound in series [2] is 0.182. Besides, the CL is given as 13 with Liver microsomes and 30 in series [3].

The compound `CNC1=Nc2ncccc2C(c2ccccc2)=NC1c1cccs1` (stereo not given) showed a negative logarithm of the IC50 (pIC50) at Glutamate racemase [1] of 5.66. This compound came in with an MIC with Helicobacter pylori of 0.17 mg/L (≈ 0.511 µM). Further, the fraction unbound in series [2] was 0.041. For the same compound, the CL is recorded as 40 with Liver microsomes and 82 in [3].

As to `CNC1=Nc2c(ccc[n+]2[O-])C(c2ccccc2)=NC1c1cccs1` (stereo not given), the pIC50 on Glutamate racemase [1] is 4.17. In the series with Helicobacter pylori, this compound registered an MIC of 16 mg/L (≈ 45.9 µM). Also, the fraction unbound in [2] was 0.353. Further, the CL with Liver microsomes is reported as less than 14; in [3] it was 41.

On Glutamate racemase [1], `CNC1=Nc2ncccc2C(c2ccco2)=NC1c1cncs1` (stereo not given) had a pIC50 of 5.07. In the series with Helicobacter pylori, this compound yielded an MIC of 4 mg/L (≈ 12.4 µM). Further, the fraction unbound in series [2] was 0.391. The CL in the series on Liver microsomes is 22; in series [3], 32.

Take `CNC1=Nc2ncccc2C(c2nccs2)=NC1c1cccs1` (stereo not given): on Glutamate racemase [1], the pIC50 is 5.77. For the same compound, in the series on Helicobacter pylori, the lowest concentration to inhibit growth (MIC) was 1 mg/L (≈ 2.95 µM). In addition, in series [2], the fraction unbound was 0.17. Further, the CL is recorded as less than 14 in the series on Liver microsomes and 33 in [3].

Turning to `c1ccc(C2=NC(c3cccs3)C(N3CCCC3)=Nc3ccccc32)cc1` (stereo not given), the pIC50 at Glutamate racemase [1] was 5.40. Moreover, inhibition of growth with Helicobacter pylori (MIC) required 8 mg/L (≈ 21.5 µM). Further, the CL is on record as 43 in the series with Liver microsomes and 87 in series [3].

`CCNC1=Nc2ccccc2C(c2ccccc2)=NC1c1cccs1` (stereo not given) gave a pIC50 at Glutamate racemase [1] of 5.96. The compound also had an MIC in the series on Helicobacter pylori of 2 mg/L (≈ 5.79 µM). Also, in series [2], the fraction unbound is 0.003. Further, the CL in the series with Liver microsomes is on record as 46; in [3] it was more than 100.

With `COCCNC1=Nc2ccccc2C(c2ccccc2)=NC1c1cccs1` (stereo not given), the negative logarithm of the IC50 (pIC50) at Glutamate racemase [1] is 4.72. The compound further showed an MIC in the series with Helicobacter pylori of 32 mg/L (≈ 85.2 µM). The CL is listed as 80 in the series on Liver microsomes and more than 100 in series [3].

In the case of `CNC1=Nc2cncnc2C(c2ccccc2)=NC1c1cccs1` (stereo not given), the pIC50 against Glutamate racemase [1] is 4.30. Also, the minimum inhibitory concentration (MIC) against Helicobacter pylori was determined as 64 mg/L (≈ 192 µM). Further, the fraction unbound in series [2] was 0.158. Further, the CL worked out at 36 in the series with Liver microsomes and 26 in [3].

`NC1=Nc2ccccc2C(c2ccccc2)=NC1c1cccs1` (stereo not given) gave a pIC50 at Glutamate racemase [1] of 3.40. Moreover, in the series on Helicobacter pylori, the MIC was determined as 32 mg/L (≈ 101 µM). Also, in [2], the fraction unbound was 0.02. Besides, the CL (in the series on Liver microsomes; in series [3]) was more than 100 in each case.

`c1ccc(C2=NC(c3cccs3)C(NC3CC3)=Nc3ccccc32)cc1` (stereo not given) showed a pIC50 at Glutamate racemase [1] of 5.96. In addition, the MIC in the series with Helicobacter pylori is 8 mg/L (≈ 22.4 µM). Also, the fraction unbound in series [2] was 0.03. For the same compound, the CL was determined as 50 with Liver microsomes and 74 in [3].
